Tests used:
[1] = tested on: human liver cells (HepG2-AD13); test: Direct contact cytotoxicity, Luciferase Assay System, HepG2-AD13 cells; type: cell-based; details: 6 h
Description: Immortalized human liver cells (hereafter HepG2-AD13) were obtained from collaborators at Aichi Gakuin University, Japan. The cells were maintained (37° C., 5% CO2) in Dulbecco's Modified Eagle's medium supplemented with 10% fetal bovine serum. For experiments, cells were obtained from a subconfluent stock culture.
Direct contact cytotoxicity testing was conducted by exposing cells to two-fold serial dilutions of AMmis2 (Table 8) to approximate the maximum possible exposure, assuming 7% mass fraction in the composite with a maximum of 2% leaching. To account for multiplicity and variable size of restorations, a four-fold greater dilution was also included in the testing. After 6 h, cells were assessed for cell viability using a Luciferase Assay System (Promega Corp., Madison, Wis.). Negative controls were without the AMmis2 and/or cells. Mean+standard error was obtained from five independent replicates tested in quadruplicate.

[2] = Degree of vinyl conversion (DVC) by near infra-red spectra of copolymer beams; type: physicochemical
Description: (§1) Experimental resin (UPE) was formulated from the commercially available monomers urethane dimethacrylate (UDMA, 50.91% w/w), polyethylene glycol extended urethane dimethacrylate (PEG-U, 18.18% w/w), and ethyl 2-(hydroxymethyl)acrylate (EHMA, 30.91% w/w). A conventional visible light initiator system comprised of camphorquinone (0.2% w/w) and ethyl-4-N,N-dimethylamino benzoate (4EDMAB, 0.8% w/w) was utilized. […] Copolymer specimens (beams) were prepared by depositing UPE (UPE resin control) and AM-UPE resins into glass molds (2 mm×2 mm×25 mm) and photopolymerizing them with a dental curing light (Triad 2000, Dentsply, Charlotte, N.C., USA) for 2 minutes from two sides. Copolymer specimens (pellets) were prepared by depositing UPE and AM-UPE resins into a stainless-steel mold (1 mm×16 mm), sandwiched between two sheets of Mylar film and two glass slides and photopolymerized in the same manner as the beam samples. Degree of vinyl conversion (DVC) of UPE and AM-UPE resins was determined utilizing beam samples by collecting the near infra-red (NIR) spectra (Nexus 670, ThermoFisher, Madison, Wis., USA) before and 24 h after polymerization and calculating the reduction in absorption band at 6165 cm^−1 corresponding to the vinyl (C═C—H) overtone signal. By maintaining a constant specimen thickness, a need for an invariant internal standard was eliminated. The DVC was calculated as: […]
(§2) where Area(polymer) and Area(monomer) correspond to the areas under 6165 cm^−1 peaks after and before the polymerization, respectively. After DVC analysis, flexural strength (FS) and elastic modulus (E) of beam specimen were determined employing the Universal Testing Machine (Instron 5500R, Instron Corp., Canton, Mass., USA). The load was applied (at cross-head speed of 1 mm/min) to the center of a specimen positioned on a test device with supports 20 mm apart. The FS and E of the specimens (three replicates/experimental group) was calculated as instructed in the ISO4049:2009 document. Changes in hydrophilicity/hydrophobicity of UPE resins due to the introduction of AM monomers were assessed on pellet specimen by sessile drop contact angle (CA) measurements (drop shape analyzer DSA100, Krüss GmbH, Hamburg, Germany). Following the deposition of 4 μL water droplets on the resin pellets, the pellets were imaged after 1 min resting time with a camera at the points of intersection (three-phase contact points) between the drop contour and the projection of the surface (baseline). The CA water values were calculated employing the Krüss Advance software. At least four repetitive measurements were performed in each group. Analysis of variance (ANOVA) and Newman-Keuls multiple paired comparisons (at 95% confidence level) were used to analyze the experimental data as a function of resin composition and establish a statistical significance of differences between the experimental groups (WINKS 7.0.9, TexaSoft, Cedar Hills, Tex., USA).

[3] = Sessile drop water contact angle (CA) on resin pellets; type: physicochemical
Description: as §1, §2

[4] = tested on: mouse subcutaneous connective tissue fibroblasts (NCTC clone 929, CCL1); test: Direct contact cytotoxicity, LIVE/DEAD viability, CCL1 cells; type: cell-based
[5] = tested on: human gingival fibroblasts (HGF); test: Direct contact cytotoxicity, LIVE/DEAD viability, HGF cells; type: cell-based
Description: (§3) Immortalized human gingival fibroblasts (HGF) were purchased from Applied Biological Materials, Inc. (Richmond, British Columbia, Canada). […] For experiments, cells were obtained from a subconfluent stock culture.
(§4) Direct contact cytotoxicity testing was conducted as previously described^7, 8. Briefly, cells were exposed to two-fold serial dilutions of AMadh series monomers or AMsil series monomers to approximate the maximum possible exposure, (Table 9). Table 9 illustrates biocompatibility testing using maximum possible monomer exposure (mmol/L), assuming 7% mass fraction in the restorative with a maximum of 2% leaching. To account for multiplicity and variable size of restorations, a two- and four-fold greater dilution was also included in the testing. After 24 and 72 h, cells were assessed for cell viability using the LIVE/DEAD® Viability/Cytotoxicity kit (Life Technologies, Corp., Grand Island, N.Y.). Cellular metabolic activity was subsequently assessed using the CellTiter® AQueous One Solution Reagent (Promega, Corp., Madison, Wis.). Negative controls were without the novel monomer and/or cells. Mean+standard error was obtained from five independent replicates tested in triplicate.

[6] = tested on: CCL1 cells; test: Cellular metabolic activity (CellTiter AQueous One Solution Reagent), CCL1 cells; type: cell-based; details: two-fold serial dilutions, 24 h and 72 h
[7] = tested on: human gingival fibroblasts (HGF); test: Cellular metabolic activity (CellTiter AQueous One Solution Reagent), HGF cells; type: cell-based; details: two-fold serial dilutions, 24 h and 72 h
Description: as §3, §4

[8] = two-fold serial dilutions, 24 h and 72 h

Row | Compound | effect on HepG2-AD13 cells compared to negative control ([1]; concentrations ≤1.812 mmol/L) | relative luminescence units, fold greater than at all lower concentrations ([1]; concentrations ≥3.623 mmol/L) | DVC compared to UPE resin control ([2]; 10 mass percent in UPE resin) | reduction of DVC relative to UPE resin control ([2]; 20 mass percent in UPE resin) [%] | CA ([3]; 10 mass % monomer in UPE resin) [°] | reduction of CA relative to UPE resin control ([3]; 10 mass % monomer in UPE resin) [%] | effect on hydrophobic-hydrophilic properties of the copolymer ([3]; 10 mass percent in UPE resin) | effect on hydrophobic-hydrophilic properties of the copolymer ([3]; 20 mass percent in UPE resin) | effect of monomer concentration on CCL1 cell viability [4, 8] | percentage of live CCL1 cells, fold lower compared to concentrations ≤0.91 mmol/L ([4]; ≥1.82 mmol/L, 72 h exposure) [fold] | live CCL1 cells compared to lower concentrations ([4]; ≥3.64 mmol/L, 24 h exposure) | effect of exposure time on HGF live cells, difference of means ([5]; 24 h vs 72 h, regardless of concentration) [%] | effect of monomer concentration on HGF cell viability [5, 8] | reduction of number of live HGFs compared to the control group ([5]; ≥1.82 mmol/L) | effect of monomer concentration on CCL1 metabolic activity [6] | effect on metabolic activity of HGF cells [7]
1 | 2-(methacryloyloxy)-N,N,N-trimethylethan-1-aminium methacrylate [AMmis2] | did not exert a significant effect | at least 1.5 fold |  |  |  |  |  |  |  |  |  |  |  |  |  | 
2 | C=C(C)C(=O)OCC[N+](C)(C)CCCCCCCCCCC[Si](OC)(OC)OC.[Br-] [AMsil2, N-(2-(methacryloyloxy)ethyl)-N,N-dimethyl-11-(trimethoxysilyl)undecan-1-aminium bromide] |  |  | did not change the copolymer DVC | 12.9 | 37.4±9.2 | 38 | a shift towards the lower CA values | maintained the hydrophobic-hydrophilic balance | exerted a main effect | 3 to 4 | lower | ~23 | exhibited a concentration effect | more than 3 fold | exerted an effect | exhibited an effect
